For 22 compounds, IC50 results are on record in patent publication US10308629B2, “1H-pyrrol-3-amines” (BAYER PHARMA AKTIENGESELLSCHAFT, priority 2015, dated 2019).

Chain of (recombinant) catalytic domain of human Bub1 (amino acids 704-1085) (O43683 704-1085): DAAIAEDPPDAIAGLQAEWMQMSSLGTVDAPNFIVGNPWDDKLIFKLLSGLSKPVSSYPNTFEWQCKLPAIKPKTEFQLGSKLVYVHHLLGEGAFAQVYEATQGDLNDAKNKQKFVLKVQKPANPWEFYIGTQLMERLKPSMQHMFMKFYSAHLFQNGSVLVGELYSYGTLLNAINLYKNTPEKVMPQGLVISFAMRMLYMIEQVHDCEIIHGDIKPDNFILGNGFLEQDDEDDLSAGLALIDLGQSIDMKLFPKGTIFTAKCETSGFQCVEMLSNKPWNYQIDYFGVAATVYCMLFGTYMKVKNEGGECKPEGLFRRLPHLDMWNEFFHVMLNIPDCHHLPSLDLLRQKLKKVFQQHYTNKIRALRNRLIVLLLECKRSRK

In this test the target is (recombinant) catalytic domain of human Bub1 (amino acids 704-1085) (Homo sapiens (Human), UniProt O43683). As to the kind of experiment: Bub1 kinase assay (TR-FRET). Type of test: biochemical. To be noted: ATP 10 μM, peptide substrate 1 μM, 60 min at 22° C., read-out: Inhibition of Bub1 kinase IC50. An excerpt:
Bub1-inhibitory activities of compounds described in the present invention were quantified using a time-resolved fluorescence energy transfer (TR-FRET) kinase assay which measures phosphorylation of the synthetic peptide Biotin-Ahx-VLLPKKSFAEPG (SEQ ID No. 1) (C-terminus in amide form), purchased from e.g. Biosyntan (Berlin, Germany) by the (recombinant) catalytic domain of human Bub1 (amino acids 704-1085), expressed in Hi5 insect cells with an N-terminal His6-tag and purified by affinity-(Ni-NTA) and size exclusion chromatography.
In a typical assay 11 different concentrations of each compound (0.1 nM, 0.33 nM, 1.1 nM, 3.8 nM, 13 nM, 44 nM, 0.15 μM, 0.51 μM, 1.7 μM, 5.9 μM and 20 μM) were tested in duplicate within the same microtiter plate. To this end, 100-fold concentrated compound solutions (in DMSO) were previously prepared by serial dilution (1:3.4) of 2 mM stocks in a clear low volume 384-well source microtiter plate (Greiner Bio-One, Frickenhausen, Germany), from which 50 nl of compounds were transferred into a black low volume test microtiter plate from the same supplier. Subsequently, 2 μL of Bub1 (the final concentration of Bub1 was adjusted depending on the activity of the enzyme lot in order to be within the linear dynamic range of the assay: typically ˜200 ng/mL were used) in aqueous assay buffer [50 mM Tris/HCl pH 7.5, 10 mM magnesium chloride (MgCl2), 200 mM potassium chloride (KCl), 1.0 mM dithiothreitol (DTT), 0.1 mM sodium ortho-vanadate, 1% (v/v) glycerol, 0.01% (w/v) bovine serum albumine (BSA), 0.005% (v/v) Trition X-100 (Sigma), 1× Complete EDTA-free protease inhibitor mixture (Roche)] were added to the compounds in the test plate and the mixture was incubated for 15 min at 22° C. to allow pre-equilibration of the putative enzyme-inhibitor complexes before the start of the kinase reaction, which was initiated by the addition of 3 μL 1.67-fold concentrated solution (in assay buffer) of adenosine-tri-phosphate (ATP, 10 μM final concentration) and peptide substrate (1 μM final concentration). The resulting mixture (5 μL final volume) was incubated at 22° C. during 60 min. and the reaction w as stopped by the addition of 5 μL of an aqueous EDTA-solution (50 mM EDTA, in 100 mM HEPES pH 7.5 and 0.2% (w/v) bovine serum albumin) which also contained the TR-FRET detection reagents (0.2 μM streptavidin-XL665 [Cisbio Bioassays, Codolet, France] and 1 nM anti-phosho-Serine antibody [Merck Millipore, cat. #35-002] and 0.4 nM LANCE EU-W1024 labeled anti-mouse IgG antibody [Perkin-Elmer, product no. AD0077, alternatively a Terbium-cryptate-labeled anti-mouse IgG antibody from Cisbio Bioassays can be used]). The stopped reaction mixture was further incubated 1 h at 22° C. in order to allow the formation of complexes between peptides and detection reagents. Subsequently, the amount of product was evaluated by measurement of the resonance energy transfer from the Eu-chelate-antibody complex recognizing the Phosphoserine residue to the streptavidin-XL665 bound to the biotin moiety of the peptide. To this end, the fluorescence emissions at 620 nm and 665 nm after excitation at 330-350 nm were measured in a TR-FRET plate reader, e.g. a Rubystar or Pherastar (both from BMG Labtechnologies, Offenburg, Germany) or a Viewlux (Perkin-Elmer) and the ratio of the emissions (665 nm/622 nm) was taken as indicator for the amount of phosphorylated substrate. The data were normalised using two sets of control wells for high−(=enzyme reaction without inhibitor=0%=Minimum inhibition) and low−(=all assay components without enzyme=100%=Maximum inhibition) Bub1 activity. IC50 values were calculated by fitting the normalized inhibition data to a 4-parameter logistic equation (Minimum, Maximum, IC50, Hill; Y=Max+(Min−Max)/(1+(X/IC50)Hill)).
For orientation: In TR-FRET formats the signal depends on donor and acceptor labels being close together.
For orientation: IC50 means the point on the concentration scale where inhibition reaches its midpoint. For the compound “N-{4-[[(4aR,5aR) or (4aS,5aS)]-3-anilino-5a-methyl-4-oxo-1,4,4a,5,5a,6-hexahydrocyclopropa[f]indol-2-yl]pyridin-2-yl}-3-fluoro-4-methoxybenzamide [Example 50]”, the IC50 worked out at 13 nM. For `C[C@@]12Cc3[nH]c(-c4ccnc(NS(C)(=O)=O)c4)c(Nc4ccccc4)c3C(=O)[C@@H]1C2` (relative stereo) [Example 27, N-{4-[rel-(4aR,5aR)-3-Anilino-5a-methyl-4-oxo-1,4,4a,5,5a,6-hexahydrocyclopropa[f]indol-2-yl]pyridin-2-yl}methanesulfonamide], the IC50 is 630 nM. For `CN1C[C@H]2C(=O)c3c([nH]c(-c4ccncc4)c3Nc3ccccc3)C[C@H]2C1=O` (relative stereo) [Example 11, rel-(4aR,7aS)-6-Methyl-3-(phenylamino)-2-(pyridin-4-yl)-1,4a,5,6,7a,8-hexahydropyrrolo[3,4-f]indole-4,7-dione] the value was 19 nM. For “N-{4-[[(4aR,5aR) or (4aS,5aS)]-3-Anilino-5a-methyl-4-oxo-1,4,4a,5,5a,6-hexahydrocyclopropa[f]indol-2-yl]pyridin-2-yl}-2,6-difluorobenzamide [Example 46]”, the half-inhibitory concentration (IC50) stood at 4 nM. With “N-{4-[[(4aS,5aS) or (4aR,5aR)]-3-anilino-5a-methyl-4-oxo-1,4,4a,5,5a,6-hexahydrocyclopropa[f]indol-2-yl]pyridin-2-yl}-2,6-difluorobenzamide [Example 47]”, the IC50 worked out at 7 nM.

For `C[C@@]12C[C@@H]1C(=O)c1c([nH]c(-c3ccnc(NC(=O)C4(F)CC4)c3)c1Nc1ccccc1)C2=O` (relative stereo) [Example 29, 1-Fluoro-N-4-[rel-(4aS,5aR)-5a-methyl-4,6-dioxo-3-(phenylamino)-1,4,4a,5,5a,6-hexahydrocyclopropa[f]indol-2-yl]pyridin-2-ylcyclopropanecarboxamide], the IC50 was 133 nM.

`COC(=O)Nc1cc(-c2[nH]c3c(c2Nc2ccccc2)C(=O)[C@@H]2C[C@H]3C2(C)C)ccn1` (relative stereo) [Example 7, methyl 4-[rel-(5R,7S)-6,6-Dimethyl-4-oxo-3-(phenylamino)-4,5,6,7-tetrahydro-1H-5,7-methanoindol-2-yl]pyridin-2-ylcarbamate]: the IC50 turned out to be 68 nM. In the case of `CCNC(=O)Nc1cc(-c2[nH]c3c(c2Nc2ccccc2)C(=O)[C@@H]2C[C@H]3C2(C)C)ccn1` (relative stereo) [Example 8, 1-4-[rel-(5R,7S)-6,6-Dimethyl-4-oxo-3-(phenylamino)-4,5,6,7-tetrahydro-1H-5,7-methanoindol-2-yl]pyridin-2-yl-3-ethylurea], the IC50 was 375 nM.

As to `CC(=O)Nc1cc(-c2[nH]c3c(c2Nc2ccccc2)C(=O)CCC(C)C3)ccn1` (racemic) [Example 25, N-{4-[(7RS)-3-Anilino-7-methyl-4-oxo-1,4,5,6,7,8-hexahydrocyclohepta[b]pyrrol-2-yl]pyridin-2-yl}acetamide], the IC50 came out at 7 nM.

Take “(5S,7R or 5R,7S)-2-(2-Aminopyridin-4-yl)-6,6-dimethyl-3-(phenylamino)-1,5,6,7-tetrahydro-4H-5,7-methanoindol-4-one [Example 4]”: the IC50 was found to be 2930 nM.

`CC1(C)[C@@H]2C[C@H]1C(=O)c1c2[nH]c(-c2ccncc2F)c1Nc1ccccc1` (relative stereo) [Example 10, rel-(5R,7S)-2-(3-Fluoropyridin-4-yl)-6,6-dimethyl-3-(phenylamino)-1,5,6,7-tetrahydro-4H-5,7-methanoindol-4-one]: the IC50 stood at 35 nM.

As for `O=C1CCCCc2[nH]c(-c3ccncc3)c(Nc3ccccc3)c21` [Example 22, 3-(Phenylamino)-2-(pyridin-4-yl)-5,6,7,8-tetrahydrocyclohepta[b]pyrrol-4(1H)-one], the IC50 stood at 6 nM. With “N-4-[[(4aR,5aR) or (4aS,5aS)]-5a-Methyl-4-oxo-3-(phenylamino)-1,4,4a,5,5a,6-hexahydrocyclopropa[f]indol-2-yl]pyridin-2-yl-1H-pyrazole-3-carboxamide [Example 45]”, the IC50 was 18 nM.

For “(1S,2S)-2-Fluoro-N-4-[[(4aS,5aS) or (4aR,5aR)]-5a-methyl-4-oxo-3-(phenylamino)-1,4,4a,5,5a,6-hexahydrocyclopropa[f]indol-2-yl]pyridin-2-ylcyclopropanecarboxamide [Example 36]”, the IC50 amounted to 16 nM. The same measure for `CC1(C)[C@@H]2C[C@H]1C(=O)c1c2[nH]c(-c2ccncc2)c1Nc1ccccc1` (relative stereo) [Example 1, rel-(5R,7S)-6,6-Dimethyl-3-(phenylamino)-2-(pyridin-4-yl)-1,5,6,7-tetrahydro-4H-5,7-methanoindol-4-one]: 146 nM; for “1-Fluoro-N-4-[[(4aS,5aS) or (4aR,5aR)]-5a-methyl-4-oxo-3-(phenylamino)-1,4,4a,5,5a,6-hexahydrocyclopropa[f]indol-2-yl]pyridin-2-ylcyclopropanecarboxamide [Example 30]”: 17 nM. For the compound `Cc1ccc(=O)c2c(Nc3ccccc3)c(-c3ccnc(N)c3)[nH]c2c1` [Example 23, 2-(2-Aminopyridin-4-yl)-7-methyl-3-(phenylamino)cyclohepta[b]pyrrol-4(1H)-one], the IC50 was determined as 26 nM. Take `CC(=O)Nc1cc(-c2[nH]c3c(c2Nc2ccccc2)C(=O)[C@@H]2C[C@@H]2C3)ccn1` (relative stereo) [Example 15, rel-(4aR,5aR)-N-4-[4-oxo-3-(Phenylamino)-1,4,4a,5,5a,6-hexahydrocyclopropa[f]indol-2-yl]pyridin-2-ylacetamide]: the IC50 was found to be 6 nM. For `CC1(C(=O)Nc2cc(-c3[nH]c4c(c3Nc3ccccc3)C(=O)[C@@H]3C[C@]3(C)C4=O)ccn2)CC1` (relative stereo) [Example 33, N-{4-[rel-(4aR,5aS)-3-Anilino-5a-methyl-4,6-dioxo-1,4,4a,5,5a,6-hexahydrocyclopropa[f]indol-2-yl]pyridin-2-yl}-1-methylcyclopropanecarboxamide], the half-maximal inhibitory concentration (IC50) worked out at 110 nM.

Turning to “N-4-[[(7S) or (7R)]-7-Methyl-4-oxo-3-(phenylamino)-1,4,5,6,7,8-hexahydrocyclohepta[b]pyrrol-2-yl]pyridin-2-ylacetamide [Example 38]”, the 50% inhibitory concentration (IC50) came out at 27 nM.

With `CC1CCC(=O)c2c([nH]c(-c3ccnc(N)c3)c2Nc2ccccc2)C1` (racemic) [Example 24, (7RS)-2-(2-Aminopyridin-4-yl)-7-methyl-3-(phenylamino)-5,6,7,8-tetrahydrocyclohepta[b]pyrrol-4(1H)-one], the IC50 is 25 nM. As to `CC1(C)[C@@H]2C[C@H]1C(=O)c1c2[nH]c(-c2ccnc(NC(=O)C3CC3)c2)c1Nc1ccccc1` (relative stereo) [Example 6, N-4-[rel-(5R,7S)-6,6-Dimethyl-4-oxo-3-(phenylamino)-4,5,6,7-tetrahydro-1H-5,7-methanoindol-2-yl]pyridin-2-ylcyclopropanecarboxamide], the IC50 is 63 nM.
